These results are taken from PubChem BioAssay (NCI).

Some test systems named below: U251 CNS; RPMI-8226 leukemia; UACC-62 melanoma; CCRF-CEM leukemia; NCI-H23 lung; NCI/ADR-RES ovarian; SW-620 colon; A549 NSCLC; IGROV1 ovarian; SK-MEL-5 melanoma.
Experiment in all cases: NCI tumour cell line growth inhibition, 48 h

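Following 48 hours of exposure in 96-well plates, responses at five concentrations were used to interpolate endpoints linearly. Here, GI50 denotes the concentration required for 50% inhibition of growth. TGI marks complete inhibition of growth.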

For `COc1cc2nc(N3CCCC3)nc(Nc3ccccc3)c2cc1OC`, the GI50 in the assay with U251 CNS is 1.02 µM; with RPMI-8226 leukemia it was 1.07 µM; in the assay on UACC-62 melanoma, 1.73 µM; in the assay with CCRF-CEM leukemia it was 0.329 µM; in the assay with NCI-H23 lung, 1.93 µM; with NCI/ADR-RES ovarian it was 1.74 µM. The GI50 is 1.52 µM in the assay with SW-620 colon, 1.65 µM in the assay on A549 NSCLC, 1.38 µM with IGROV1 ovarian and 1.71 µM with SK-MEL-5 melanoma. Further, the TGI was 2.45 µM in the assay on U251 CNS; 4.3 µM with RPMI-8226 leukemia; 3.23 µM in the assay on UACC-62 melanoma; 3.09 µM in the assay with CCRF-CEM leukemia; 3.76 µM in the assay with NCI-H23 lung; 4.07 µM with NCI/ADR-RES ovarian. The TGI was 3.17 µM in the assay with SW-620 colon, 4.31 µM in the assay on A549 NSCLC, 2.84 µM in the assay on IGROV1 ovarian and 3.12 µM with SK-MEL-5 melanoma.
`CC1(O)CC2(O)C=CC3=C(C(=O)c4cccc(O)c4C3=O)C2(O)C(=O)C1O` (stereo not drawn): the TGI in the assay with U251 CNS was 9.81 µM; with RPMI-8226 leukemia, 4.66 µM; in the assay on UACC-62 melanoma, 6.88 µM; in the assay with CCRF-CEM leukemia it was 2.87 µM; with NCI-H23 lung, 10.7 µM; in the assay with NCI/ADR-RES ovarian it was 20.2 µM. Also, the TGI with SW-620 colon was 1.67 µM; with A549 NSCLC it was 25.3 µM; in the assay with IGROV1 ovarian it was 10.6 µM; in the assay with SK-MEL-5 melanoma, 7.58 µM.
As for `Cc1ccc(N=Nc2c(N)nn(-c3ccccc3)c2N)cc1`, the GI50 in the assay on U251 CNS is 0.762 µM; in the assay on RPMI-8226 leukemia, 1.61 µM; with UACC-62 melanoma, 0.874 µM; in the assay on CCRF-CEM leukemia it was 2.06 µM; with NCI-H23 lung it was 2.29 µM; with NCI/ADR-RES ovarian it was 0.412 µM. Moreover, the GI50 was 0.493 µM in the assay with SW-620 colon, 2.13 µM in the assay with A549 NSCLC, 4.5 µM in the assay with IGROV1 ovarian and 1.65 µM with SK-MEL-5 melanoma. Also, the TGI with U251 CNS is above 100 µM; with RPMI-8226 leukemia, 42 µM; with UACC-62 melanoma, above 100 µM; in the assay on NCI/ADR-RES ovarian, above 20.6 µM; with SW-620 colon, above 100 µM; with A549 NSCLC, above 100 µM. In addition, the TGI with IGROV1 ovarian and in the assay with SK-MEL-5 melanoma was above 100 µM throughout.
As to `CC[N+]1(C)CCC(O)(c2ccccc2)C(C(=O)c2ccccc2)C1` (stereo not drawn), the TGI with U251 CNS is 43.2 µM; with RPMI-8226 leukemia, 6.37 µM; in the assay on UACC-62 melanoma, 38.6 µM; in the assay on CCRF-CEM leukemia, 6.89 µM; in the assay on NCI-H23 lung it was 40.8 µM; with NCI/ADR-RES ovarian it was 83.6 µM. Also, the TGI in the assay with SW-620 colon came out at 4.58 µM; with A549 NSCLC, 27.9 µM; in the assay on IGROV1 ovarian, 38.6 µM; in the assay with SK-MEL-5 melanoma it was 33.6 µM.
Turning to `C=CC(=O)N1CCC([C@@H]2CCNc3c(C(N)=O)c(-c4ccc(Oc5ccccc5)cc4)nn32)CC1`, the GI50 in the assay on U251 CNS was 17.6 µM; in the assay with RPMI-8226 leukemia, 14.5 µM; in the assay with UACC-62 melanoma, 11.4 µM; in the assay on CCRF-CEM leukemia, 19.4 µM; in the assay on NCI-H23 lung it was 17.5 µM; with NCI/ADR-RES ovarian, 17.8 µM. Besides, the GI50 was 19.2 µM in the assay with SW-620 colon, 13.2 µM in the assay on A549 NSCLC, 0.912 µM in the assay with IGROV1 ovarian and 14.5 µM in the assay on SK-MEL-5 melanoma. Also, the TGI with U251 CNS is above 77.1 µM; in the assay on RPMI-8226 leukemia it was 42.8 µM; in the assay with UACC-62 melanoma, 26.6 µM; with CCRF-CEM leukemia, above 73.2 µM; with NCI-H23 lung, 43.2 µM; with NCI/ADR-RES ovarian, above 96.6 µM. Moreover, the TGI with SW-620 colon is 46.1 µM; in the assay on A549 NSCLC it was above 100 µM; in the assay with IGROV1 ovarian, 16.7 µM; in the assay with SK-MEL-5 melanoma it was 28.7 µM.
For the compound `O=C(O)CCCSc1nc2ccccc2s1`, the TGI in the assay with U251 CNS, in the assay with RPMI-8226 leukemia, in the assay with UACC-62 melanoma, in the assay on CCRF-CEM leukemia, with NCI-H23 lung and with NCI/ADR-RES ovarian was above 100 µM each time. In addition, the TGI with SW-620 colon, with A549 NSCLC, with IGROV1 ovarian and with SK-MEL-5 melanoma was above 100 µM each time.
As to `CCOC(=O)Cn1c(C)c(/C=N/NC(=O)c2cc3c(ccc4ccccc43)o2)c2ccccc21`, the GI50 was 0.426 µM in the assay on U251 CNS; 0.443 µM in the assay with RPMI-8226 leukemia; 0.3 µM in the assay on UACC-62 melanoma; 0.41 µM with CCRF-CEM leukemia; 0.669 µM with NCI-H23 lung; 0.259 µM in the assay on NCI/ADR-RES ovarian. Besides, the GI50 in the assay with SW-620 colon is 0.48 µM; in the assay with A549 NSCLC it was 0.627 µM; with IGROV1 ovarian, 0.527 µM; in the assay on SK-MEL-5 melanoma it was 0.381 µM. In addition, the TGI is 4.17 µM in the assay on U251 CNS; 3.12 µM with RPMI-8226 leukemia; 11 µM with UACC-62 melanoma; above 100 µM in the assay on CCRF-CEM leukemia; 6.91 µM in the assay with NCI-H23 lung; 3.08 µM with NCI/ADR-RES ovarian. The TGI in the assay on SW-620 colon is 11.4 µM; in the assay with A549 NSCLC it was 5.85 µM; in the assay with IGROV1 ovarian it was 3.47 µM; in the assay with SK-MEL-5 melanoma, 1.71 µM.
